From PubChem BioAssay AID248 (DTP/NCI, 2004)
Several values for one entry are separate records, joined by “and”; a condition that tells them apart may be missing. Equal values may be shown once. Inconclusive results and toxic doses are left out. No stated cut-off is given here; in the data, active means T/C of 150% or more; inactive means T/C below 125%.

System: L1210 leukemia ip in BDF1 mice, survival T/C
Assay: NCI In Vivo Anticancer Drug Screen. Data for tumor model L1210 Leukemia (intraperitoneal) in B6D2F1 (BDF1) mice
Details: endpoint: mean survival time, higher = longer survival
Summary of the method: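 Transplanted-tumor mice were given test agent; controls received vehicle only. Survival readings from the two groups were divided (treated over control).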

[1] = dose: 100.0 mg/kg/injection, schedule: Q04DX003 (ip), vehicle: Klucel (hydroxypropylcellulose) (HPC)
[2] = dose: 200.0 mg/kg/injection, schedule: Q04DX003 (ip), vehicle: Klucel (hydroxypropylcellulose) (HPC)
[3] = dose: 400.0 mg/kg/injection, schedule: Q04DX003 (ip), vehicle: Klucel (hydroxypropylcellulose) (HPC)
[4] = dose: 100.0 mg/kg/injection, schedule: Q04DX002 (ip), vehicle: saline with Tween-80
[5] = dose: 200.0 mg/kg/injection, schedule: Q04DX002 (ip), vehicle: saline with Tween-80
[6] = dose: 400.0 mg/kg/injection, schedule: Q04DX002 (ip), vehicle: saline with Tween-80
[7] = dose: 100.0 mg/kg/injection, schedule: Q01DX001 (ip), vehicle: saline
[8] = dose: 200.0 mg/kg/injection, schedule: Q01DX001 (ip), vehicle: saline
[9] = dose: 400.0 mg/kg/injection, schedule: Q01DX001 (ip), vehicle: saline
[10] = dose: 100.0 mg/kg/injection, schedule: Q04DX002 (ip), vehicle: Klucel (hydroxypropylcellulose) (HPC)
[11] = dose: 200.0 mg/kg/injection, schedule: Q04DX002 (ip), vehicle: Klucel (hydroxypropylcellulose) (HPC)
[12] = dose: 200.0 mg/kg/injection, schedule: Q01DX001 (ip), vehicle: carboxymethylcellulose (CMC)
[13] = dose: 100.0 mg/kg/injection, schedule: Q01DX001 (ip), vehicle: Klucel (hydroxypropylcellulose) (HPC)
[14] = dose: 100.0 mg/kg/injection, schedule: Q01DX009 (ip), vehicle: Klucel (hydroxypropylcellulose) (HPC)
[15] = dose: 200.0 mg/kg/injection, schedule: Q01DX001 (ip), vehicle: Klucel (hydroxypropylcellulose) (HPC)
[16] = dose: 200.0 mg/kg/injection, schedule: Q01DX009 (ip), vehicle: Klucel (hydroxypropylcellulose) (HPC)
[17] = dose: 400.0 mg/kg/injection, schedule: Q04DX002 (ip), vehicle: Klucel (hydroxypropylcellulose) (HPC)
[18] = dose: 50.0 mg/kg/injection, schedule: Q04DX003 (ip), vehicle: Klucel (hydroxypropylcellulose) (HPC)
[19] = dose: 100.0 mg/kg/injection, schedule: Q01DX009 (ip), vehicle: saline with Tween-80
[20] = dose: 200.0 mg/kg/injection, schedule: Q01DX009 (ip), vehicle: saline with Tween-80

Measured: T/C

CC(=O)Nc1ccc(/C=N\NC(=O)C2CC2)cc1
inactive: [1] 100 % of control | [2] 87 % of control | [3] 87 % of control

CC(=O)[C@H]1CC[C@H]2[C@@H]3CCC4=CC(=O)CC[C@]4(C)[C@H]3CC[C@]12C
inactive: dose: 125.0 mg/kg/injection, schedule: Q01DX Z (sc), vehicle: steriod suspending solution 97 % of control | dose: 250.0 mg/kg/injection, schedule: Q01DX Z (sc), vehicle: steriod suspending solution 91 % of control | dose: 500.0 mg/kg/injection, schedule: Q01DX Z (sc), vehicle: steriod suspending solution 96 % of control | dose: 1000.0 mg/kg/injection, schedule: Q01DX Z (sc), vehicle: steriod suspending solution 92 % of control

Cc1cccc[c]1[Sb]([c]1ccccc1C)[c]1ccccc1C
inactive: [4] 100 % of control | [5] 96 % of control | [6] 96 % of control

COc1ccc(Br)c([N+](=O)[O-])c1
inactive: [7] 103 % of control | [8] 97 % of control | [9] 103 % of control

CC(O)C(Cl)(Cl)Cl (stereo unspecified)
inactive: dose: 75.0 mg/kg/injection, schedule: Q01DX001 (ip), vehicle: carboxymethylcellulose (CMC) 100 % of control | dose: 150.0 mg/kg/injection, schedule: Q01DX001 (ip), vehicle: carboxymethylcellulose (CMC) 98 % of control | dose: 300.0 mg/kg/injection, schedule: Q01DX001 (ip), vehicle: carboxymethylcellulose (CMC) 106 % of control

O=C(Nc1ccccc1)Oc1ccc(C2CCCCC2)cc1
inactive: [10] 93 % of control | [11] 121 % of control

CCNc1nc2c(N)ncnc2n1C1CC(O)C(CO)O1 (stereo unspecified)
inactive: dose: 100.0 mg/kg/injection, schedule: Q01DX001 (ip), vehicle: carboxymethylcellulose (CMC) 96 % of control | [12] 98 % of control | dose: 400.0 mg/kg/injection, schedule: Q01DX001 (ip), vehicle: carboxymethylcellulose (CMC) 93 % of control

CCOC1CC2CN(C)C1c1ccccc12 (stereo unspecified)
inactive: dose: 100.0 mg/kg/injection, schedule: Q04DX003 (ip), vehicle: saline 97 % of control | dose: 200.0 mg/kg/injection, schedule: Q04DX003 (ip), vehicle: saline 97 % of control | dose: 400.0 mg/kg/injection, schedule: Q04DX003 (ip), vehicle: saline 101 % of control

CCOC(C)c1ccccc1 (stereo unspecified)
inactive: [12] 95 % of control

CCOc1ccc(/C=N/NC(=O)c2ccccc2NC(=O)c2ccccc2Cl)cc1OC
inactive: [13] 93 % of control | [14] 97 % of control and 90 % of control | [10] 95 % of control and 103 % of control | [1] 92 % of control | [15] 98 % of control | [16] 90 % of control and 91 % of control | [11] 108 % of control and 92 % of control | [2] 97 % of control | dose: 400.0 mg/kg/injection, schedule: Q01DX001 (ip), vehicle: Klucel (hydroxypropylcellulose) (HPC) 93 % of control | dose: 400.0 mg/kg/injection, schedule: Q01DX009 (ip), vehicle: Klucel (hydroxypropylcellulose) (HPC) 94 % of control and 88 % of control | [17] 97 % of control and 92 % of control | [3] 92 % of control

Nc1c2ccccc2cc2cccc[n+]12
inactive: dose: 9.38 mg/kg/injection, schedule: Q01DX001 (ip), vehicle: other 101 % of control and 100 % of control | dose: 18.75 mg/kg/injection, schedule: Q01DX001 (ip), vehicle: other 97 % of control and 99 % of control

CCC1(O)C(=O)OCc2c1cc(C)[nH]c2=O (stereo unspecified)
inactive: dose: 6.25 mg/kg/injection, schedule: Q04DX003 (ip), vehicle: Klucel (hydroxypropylcellulose) (HPC) 86 % of control | dose: 12.5 mg/kg/injection, schedule: Q04DX003 (ip), vehicle: Klucel (hydroxypropylcellulose) (HPC) 94 % of control | dose: 25.0 mg/kg/injection, schedule: Q04DX003 (ip), vehicle: Klucel (hydroxypropylcellulose) (HPC) 86 % of control | [18] 89 % of control | [1] 91 % of control | [2] 86 % of control

C=CCSC(=S)SCc1cccc(Cl)c1
inactive: dose: 100.0 mg/kg/injection, schedule: Q01DX009 (ip), vehicle: saline 101 % of control | dose: 100.0 mg/kg/injection, schedule: Q04DX002 (ip), vehicle: saline 100 % of control | dose: 200.0 mg/kg/injection, schedule: Q01DX009 (ip), vehicle: saline 101 % of control | dose: 200.0 mg/kg/injection, schedule: Q04DX002 (ip), vehicle: saline 100 % of control | dose: 400.0 mg/kg/injection, schedule: Q01DX009 (ip), vehicle: saline 99 % of control | dose: 400.0 mg/kg/injection, schedule: Q04DX002 (ip), vehicle: saline 97 % of control

COc1ccc(/C=N\NC(=O)CCCC(=O)N/N=C/c2ccc(OC)c(OC)c2)cc1OC
inactive: dose: 50.0 mg/kg/injection, schedule: Q01DX001 (ip), vehicle: saline 100 % of control | [7] 100 % of control | [8] 93 % of control | [9] 100 % of control

O=C(Nc1ccc(Cl)cc1)C(c1ccccc1)c1ccccc1
inactive: [4] 100 % of control | [5] 110 % of control | [6] 100 % of control

COc1ccc(SC2CCCCC2OS(C)(=O)=O)cc1 (stereo unspecified)
inactive: dose: 50.0 mg/kg/injection, schedule: Q01DX009 (ip), vehicle: Klucel (hydroxypropylcellulose) (HPC) 107 % of control | [18] 102 % of control | [13] 106 % of control | [14] 109 % of control | [1] 106 % of control | [15] 95 % of control | [16] 98 % of control | [2] 104 % of control

CCC(=O)Cc1ccc2[nH]c(C)cc(=O)c2c1
inactive: [7] 96 % of control | [8] 98 % of control | [9] 88 % of control

CCCCCCCCCCCCCCP(I)(N(C)C)(N(C)C)N(C)C
inactive: dose: 0.78 mg/kg/injection, schedule: Q04DX002 (ip), vehicle: saline 107 % of control | dose: 1.56 mg/kg/injection, schedule: Q04DX002 (ip), vehicle: saline 113 % of control | dose: 3.13 mg/kg/injection, schedule: Q04DX002 (ip), vehicle: saline 113 % of control

Cc1ccc2[nH]c(=S)[nH]c2c1
inactive: dose: 100.0 mg/kg/injection, schedule: Q01DX001 (ip), vehicle: saline with Tween-80 101 % of control | dose: 200.0 mg/kg/injection, schedule: Q01DX001 (ip), vehicle: saline with Tween-80 106 % of control

CSc1ccc(OC(C)=O)cc1
inactive: dose: 50.0 mg/kg/injection, schedule: Q01DX009 (ip), vehicle: saline with Tween-80 94 % of control | [19] 91 % of control | [20] 102 % of control

NNC(=O)CCc1ccccc1O
inactive: [19] 93 % of control | [20] 91 % of control | dose: 400.0 mg/kg/injection, schedule: Q01DX009 (ip), vehicle: saline with Tween-80 93 % of control

O=[N+]([O-])c1ccc(N=C(Cl)c2cc(N3CCOCC3)ccn2)cc1
inactive: [7] 94 % of control | [8] 94 % of control | [9] 95 % of control

O=C(OCc1ccccc1CN1CCOCC1)c1ccc([N+](=O)[O-])cc1
inactive: [10] 105 % of control | [11] 98 % of control | [17] 98 % of control
